According to the NIST ThermoML archive (doi:10.1016/j.fluid.2015.04.019):
Numbers after ± are expanded uncertainties.

Settings: 101.33 kPa, Liquid, Vibrating tube method

SMILES | mass density (293.15 K) [kg/m3] | mass density (313.15 K) [kg/m3]
CCCCOCCO [2-butoxyethan-1-ol] | 900.64 ± 0.15 | 883.8 ± 0.15
CCCCCCCC [octane] | 702.64 ± 0.32 | 686.39 ± 0.32
